The source made the active and inactive calls. The rule behind the calls is not given here.
Assays:
[1] = molecular target: T1, Kinesin-like protein KIF11 (Homo sapiens) (UniProt P52732); assay: Binding affinity to recombinant Eg5-GFP in cell-free system assessed as Eg5-GFP movement along microtubules without directionality at 2 mM by mean square displacement analysis
T1 sequence (whole entry): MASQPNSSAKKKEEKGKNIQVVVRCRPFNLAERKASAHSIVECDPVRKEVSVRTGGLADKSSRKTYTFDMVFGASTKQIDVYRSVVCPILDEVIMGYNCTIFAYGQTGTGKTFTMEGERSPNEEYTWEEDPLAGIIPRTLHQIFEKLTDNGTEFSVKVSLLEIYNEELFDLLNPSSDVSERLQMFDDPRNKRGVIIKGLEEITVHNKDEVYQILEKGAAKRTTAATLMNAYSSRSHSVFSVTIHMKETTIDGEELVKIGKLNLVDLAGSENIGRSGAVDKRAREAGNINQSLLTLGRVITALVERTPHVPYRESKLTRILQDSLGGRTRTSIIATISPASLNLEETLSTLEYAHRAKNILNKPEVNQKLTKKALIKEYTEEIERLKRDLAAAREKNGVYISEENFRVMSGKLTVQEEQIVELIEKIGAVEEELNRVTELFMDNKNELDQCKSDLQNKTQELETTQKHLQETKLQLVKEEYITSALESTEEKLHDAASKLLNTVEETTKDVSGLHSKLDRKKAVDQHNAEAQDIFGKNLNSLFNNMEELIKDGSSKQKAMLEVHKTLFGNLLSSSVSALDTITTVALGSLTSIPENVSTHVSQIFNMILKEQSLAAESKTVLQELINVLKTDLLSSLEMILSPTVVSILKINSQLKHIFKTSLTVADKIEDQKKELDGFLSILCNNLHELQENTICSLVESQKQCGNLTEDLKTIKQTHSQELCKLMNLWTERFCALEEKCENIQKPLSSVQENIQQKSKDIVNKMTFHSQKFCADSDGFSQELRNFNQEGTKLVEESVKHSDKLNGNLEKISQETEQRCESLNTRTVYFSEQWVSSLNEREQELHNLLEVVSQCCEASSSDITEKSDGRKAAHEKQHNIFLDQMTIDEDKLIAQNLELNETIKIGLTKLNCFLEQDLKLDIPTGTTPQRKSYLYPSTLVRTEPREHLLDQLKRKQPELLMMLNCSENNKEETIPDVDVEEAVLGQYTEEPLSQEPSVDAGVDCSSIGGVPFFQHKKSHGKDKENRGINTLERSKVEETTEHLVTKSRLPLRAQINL

[2] = molecular target: T1, Kinesin-like protein KIF11 (Homo sapiens); assay: Binding affinity to recombinant Eg5-GFP in cell-free system assessed as Eg5-GFP movement along microtubules without directionality at 2 mM by kymograph analysis
[3] = molecular target: T1, Kinesin-like protein KIF11 (Homo sapiens); conditions: 100 uM
Description: Inhibition of recombinant Eg5-GFP in cell-free system assessed as reduction of Eg5 motility speed on microtubule at 100 uM by kymograph analysis

[4] = molecular target: T1, Kinesin-like protein KIF11 (Homo sapiens); conditions: 100 uM; remark: listed apart in the source
Description: Inhibition of recombinant Eg5-GFP in cell-free system assessed as Eg5 motility speed on microtubule at 100 uM by mean square displacement analysis in presence of 2 mM ATP

[5] = molecular target: T1, Kinesin-like protein KIF11 (Homo sapiens); conditions: 100 uM; remark: listed apart in the source
Description: Inhibition of recombinant Eg5-GFP in cell-free system assessed as Eg5-GFP movement along microtubules without directionality at 100 uM by mean square displacement analysis in presence of 2 mM ADP

[6] = molecular target: T1, Kinesin-like protein KIF11 (Homo sapiens); conditions: 100 uM; remark: listed apart in the source
Description: Inhibition of recombinant Eg5-GFP in cell-free system assessed as reduction in mean duration of Eg5-GFP-microtubule interaction at 100 uM by kymograph analysis

[7] = molecular target: T1, Kinesin-like protein KIF11 (Homo sapiens); conditions: 25 uM
Description: Inhibition of recombinant Eg5-GFP in cell-free system assessed as Eg5 motility speed on microtubule at 25 uM by mean square displacement analysis in presence of 2 mM ATP

Activity (nanometer2/sec) [1]	Activity (nanometer2/sec) [2]	inhibition [3]	Activity (nanometer2/sec) [4]	Activity (nanometer2/sec) [5]	inhibition [6]	Activity (nanometer2/sec) [7]	SMILES
771	4						Nc1ncnc2c1ncn2[C@@H]1O[C@H](COP(=O)(O)OP(=O)(O)O)[C@@H](O)[C@H]1O
		inactive	2140	3820	inactive	1460	CCOC(=O)C1=C(C)NC(=S)NC1c1cccc(O)c1 (configuration not stated)
